Assay results as given in the supplement of paper PMC10307832.

Tests used:
Experiment in all cases: relative viability (nuclei count vs DMSO), 5 days (fraction); higher = more cells survive
Tipifarnib + Navitoclax = compound: Cn1cncc1[C@@](N)(c1ccc(Cl)cc1)c1ccc2c(c1)c(-c1cccc(Cl)c1)cc(=O)n2C [Tipifarnib] + CC1(C)CCC(c2ccc(Cl)cc2)=C(CN2CCN(c3ccc(C(=O)NS(=O)(=O)c4ccc(N[C@H](CCN5CCOCC5)CSc5ccccc5)c(S(=O)(=O)C(F)(F)F)c4)cc3)CC2)C1 [Navitoclax] (partner 0.5 µM)
How it was run: (§1)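 After 5 days of treatment, lung cancer cells in 1536-well plates were fixed and stained in a single step (final 0.05% Triton X-100, 1% formaldehyde, 1 ug/ml Hoechst) and their nuclei counted on 4× images. Treatment had been applied by pin tool the day after seeding as one drug alone or as a fixed anchor-drug dose with five library-drug doses (not always all listed) in √10 steps. Relative viability is the nuclei count of treated wells divided by that of vehicle wells, and values are medians of duplicate plates.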

Tipifarnib + Dasatinib = compound: Cn1cncc1[C@@](N)(c1ccc(Cl)cc1)c1ccc2c(c1)c(-c1cccc(Cl)c1)cc(=O)n2C [Tipifarnib] + Cc1nc(Nc2ncc(C(=O)Nc3c(C)cccc3Cl)s2)cc(N2CCN(CCO)CC2)n1 [Dasatinib] (partner 0.075 µM)
How it was run: as §1

Tipifarnib + Bortezomib = compound: Cn1cncc1[C@@](N)(c1ccc(Cl)cc1)c1ccc2c(c1)c(-c1cccc(Cl)c1)cc(=O)n2C [Tipifarnib] + CC(C)C[C@H](NC(=O)[C@H](Cc1ccccc1)NC(=O)c1cnccn1)B(O)O [Bortezomib] (partner 0.002 µM)
How it was run: as §1

Tipifarnib + Luminespib = compound: Cn1cncc1[C@@](N)(c1ccc(Cl)cc1)c1ccc2c(c1)c(-c1cccc(Cl)c1)cc(=O)n2C [Tipifarnib] + CCNC(=O)c1noc(-c2cc(C(C)C)c(O)cc2O)c1-c1ccc(CN2CCOCC2)cc1 [Luminespib] (partner 0.01 µM)
How it was run: as §1

| Cell Line | relative viability (Tipifarnib + Navitoclax; first compound 0.01 µM) | relative viability (Tipifarnib + Navitoclax; first compound 0.03162 µM) | relative viability (Tipifarnib + Navitoclax; first compound 0.1 µM) | relative viability (Tipifarnib + Navitoclax; first compound 0.3162 µM) | relative viability (Tipifarnib + Navitoclax; first compound 1 µM) | relative viability (Tipifarnib + Dasatinib; first compound 0.01 µM) | relative viability (Tipifarnib + Dasatinib; first compound 0.03162 µM) | relative viability (Tipifarnib + Dasatinib; first compound 0.1 µM) | relative viability (Tipifarnib + Dasatinib; first compound 0.3162 µM) | relative viability (Tipifarnib + Dasatinib; first compound 1 µM) | relative viability (Tipifarnib + Bortezomib; first compound 0.01 µM) | relative viability (Tipifarnib + Bortezomib; first compound 0.03162 µM) | relative viability (Tipifarnib + Bortezomib; first compound 0.1 µM) | relative viability (Tipifarnib + Bortezomib; first compound 0.3162 µM) | relative viability (Tipifarnib + Bortezomib; first compound 1 µM) | relative viability (Tipifarnib + Luminespib; first compound 0.01 µM) | relative viability (Tipifarnib + Luminespib; first compound 0.03162 µM) | relative viability (Tipifarnib + Luminespib; first compound 0.1 µM) | relative viability (Tipifarnib + Luminespib; first compound 0.3162 µM) | relative viability (Tipifarnib + Luminespib; first compound 1 µM) |
| --- | --- | --- | --- | --- | --- | --- | --- | --- | --- | --- | --- | --- | --- | --- | --- | --- | --- | --- | --- | --- |
| HCC-366 | 1.14 | 0.762 | 0.751 | 0.483 | 0.188 | 0.78 | 0.65 | 0.353 | 0.331 | 0.046 | 1.09 | 0.887 | 0.483 | 0.315 | 0.07 | – | – | – | – | – |
| HCC-827 | 0.941 | 0.95 | 0.793 | 0.666 | 0.66 | 0.372 | 0.363 | 0.446 | 0.403 | 0.431 | 0.975 | 0.955 | 0.858 | 0.68 | 0.68 | 1.06 | 0.471 | 0.279 | 0.365 | 0.256 |
| HOP-62 | 0.937 | 0.55 | 0.377 | 0.233 | 0.33 | 0.683 | 0.392 | 0.37 | 0.277 | 0.338 | 1 | 0.188 | 0.222 | 0.275 | 0.281 | 0.653 | 0.611 | 0.401 | 0.374 | 0.349 |
| IA-LM | 0.388 | 0.378 | 0.296 | 0.251 | 0.164 | – | – | – | – | – | 0.354 | 0.407 | 0.28 | 0.292 | 0.265 | – | – | – | – | – |
| LC-2-ad | 0.413 | 0.296 | 0.258 | 0.216 | 0.201 | 0.54 | 0.545 | 0.496 | 0.277 | 0.336 | 0.984 | 0.486 | 0.491 | 0.443 | 0.185 | 1.02 | 0.897 | 0.767 | 0.753 | 0.717 |
| LCLC-97TM1 | 0.557 | 0.359 | 0.241 | 0.446 | 0.19 | 0.833 | 0.704 | 0.745 | 0.64 | 0.383 | 0.317 | 0.582 | 0.404 | 0.33 | 0.117 | 0.799 | 0.751 | 0.662 | 0.52 | 0.574 |
| LCLC-103H | – | – | – | – | – | 0.47 | 0.441 | 0.426 | 0.345 | 0.328 | 1.06 | 0.79 | 0.973 | 0.832 | 0.581 | 0.991 | 0.892 | 0.693 | 0.662 | 0.521 |
| LK-2 | 1.08 | 0.65 | 0.7 | 0.421 | 0.373 | 0.276 | 0.261 | 0.27 | 0.299 | 0.191 | – | – | – | – | – | 0.191 | 0.172 | 0.207 | 0.172 | 0.175 |
| LOU-NH91 | 0.682 | 0.633 | 0.663 | 0.483 | 0.398 | 0.53 | 0.505 | 0.507 | 0.451 | 0.338 | 0.436 | 0.42 | 0.558 | 0.534 | 0.457 | 0.321 | 0.336 | 0.323 | 0.322 | 0.323 |
